Assay results taken from patent US12077503B2, “Substituted cyclic amides and their use as herbicides” (FMC CORPORATION, priority 2015, dated 2024).

Experiments:
Type in all cases: in vivo
[1] = test system: barnyardgrass (Echinochloa crus-galli); experiment: Test G Pre-Emergence Protocol; details: Echinochloa crus-galli, pre-emergence, 312 h, evaluated after 13 days; for pest or weed control at 15.625 g/ha: 15.625 g ai/ha, read-out: Barnyard grass damage rating (100=total damage to plant; 0=no damage to plant); for pest or weed control at 62.5 g/ha: 62.5 g ai/ha, 100=total damage to plant, 0=no damage to plant, read-out: plant damage rating, Barnyardgrass; for pest or weed control at 250 g/ha: 250 g ai/ha, read-out: Barnyardgrass damage rating (100=total damage to plant; 0=no damage to plant)
Experimental: (§1) Seeds of corn (Zea mays), giant foxtail (Setaria faberi), barnyardgrass (Echinochloa crus-galli), ivy-leaved morning glory (Ipomoea hederacea), redroot pigweed (Amaranthus retroflexus) and velvetleaf (Abutilon theophrasti) were sown in standard soil in pots. After cultivation for one day under controlled conditions in a glasshouse (at 24/16° C., day/night; 14 hours light; 65% humidity), the plants were sprayed with an aqueous spray solution derived from the formulation of the technical active ingredient in acetone/water (50:50) solution containing 0.5% Tween 20 (polyoxyethylene sorbitan monolaurate, CAS RN 9005-64-5) to give a final dose of 15.625, 62.5 or 250 g/ha of test compound.
(§2) The test plants were then grown on under controlled conditions in a glasshouse (at 24/16° C., day/night; 14 hours light; 65% humidity) and watered twice daily. After 13 days the test was evaluated (100=total damage to plant; 0=no damage to plant). A dash (-) means no test result.

corn (Zea mays) [2] = experiment: Test G Pre-Emergence Protocol; details: Zea mays, pre-emergence, 312 h, evaluated after 13 days; for plant injury at 15.625 g/ha: 15.625 g ai/ha; for plant injury at 15.625 g/ha / plant injury at 250 g/ha: read-out: Corn damage rating (100=total damage to plant; 0=no damage to plant); for plant injury at 62.5 g/ha: 62.5 g ai/ha, 100=total damage to plant, 0=no damage to plant, read-out: plant damage rating, Corn; for plant injury at 250 g/ha: 250 g ai/ha
Experimental: as §1, §2

[3] = test system: giant foxtail (Setaria faberi); experiment: Test G Pre-Emergence Protocol; details: Setaria faberi, pre-emergence, 312 h, evaluated after 13 days; for pest or weed control at 15.625 g/ha: 15.625 g ai/ha; for pest or weed control at 15.625 g/ha / pest or weed control at 250 g/ha: read-out: Foxtail, Giant damage rating (100=total damage to plant; 0=no damage to plant); for pest or weed control at 62.5 g/ha: 62.5 g ai/ha, 100=total damage to plant, 0=no damage to plant, read-out: plant damage rating, Foxtail, Giant; for pest or weed control at 250 g/ha: 250 g ai/ha
Experimental: as §1, §2

[4] = test system: ivy-leaved morning glory (Ipomoea hederacea); experiment: Test G Pre-Emergence Protocol; details: Ipomoea, pre-emergence, 312 h, evaluated after 13 days; for pest or weed control at 15.625 g/ha: 15.625 g ai/ha, read-out: Morning-glory, Ivy-leaved damage rating (100=total damage to plant; 0=no damage to plant); for pest or weed control at 62.5 g/ha: 62.5 g ai/ha, 100=total damage to plant, 0=no damage to plant, read-out: plant damage rating, Morningglory, Ivy-leaved; for pest or weed control at 250 g/ha: 250 g ai/ha, read-out: Morningglory, Ivy-leaved damage rating (100=total damage to plant; 0=no damage to plant)
Experimental: as §1, §2

[5] = test system: redroot pigweed (Amaranthus retroflexus); experiment: Test G Pre-Emergence Protocol; details: Amaranthus retroflexus, pre-emergence, 312 h, evaluated after 13 days; for pest or weed control at 15.625 g/ha: 15.625 g ai/ha; for pest or weed control at 15.625 g/ha / pest or weed control at 250 g/ha: read-out: Pigweed, Redroot damage rating (100=total damage to plant; 0=no damage to plant); for pest or weed control at 62.5 g/ha: 62.5 g ai/ha, 100=total damage to plant, 0=no damage to plant, read-out: plant damage rating, Pigweed, Redroot; for pest or weed control at 250 g/ha: 250 g ai/ha
Experimental: as §1, §2

[6] = test system: velvetleaf (Abutilon theophrasti); experiment: Test G Pre-Emergence Protocol; details: Abutilon theophrasti, pre-emergence, 312 h, evaluated after 13 days; for pest or weed control at 15.625 g/ha: 15.625 g ai/ha; for pest or weed control at 15.625 g/ha / pest or weed control at 250 g/ha: read-out: Velvetleaf damage rating (100=total damage to plant; 0=no damage to plant); for pest or weed control at 62.5 g/ha: 62.5 g ai/ha, 100=total damage to plant, 0=no damage to plant, read-out: plant damage rating, Velvetleaf; for pest or weed control at 250 g/ha: 250 g ai/ha
Experimental: as §1, §2

[7] = test system: barnyardgrass (Echinochloa crus-galli); experiment: Test G Post-Emergence Protocol; details: Echinochloa crus-galli, post-emergence, 312 h; for pest or weed control at 15.625 g/ha: 15.625 g ai/ha, evaluated after 13 days (100=total damage to plant; 0=no damage to plant), read-out: Barnyardgrass damage rating; for pest or weed control at 62.5 g/ha: 62.5 g ai/ha, read-out: Barnyardgrass damage rating (100=total damage to plant; 0=no damage to plant); for pest or weed control at 62.5 g/ha / pest or weed control at 250 g/ha: evaluated after 13 days; for pest or weed control at 250 g/ha: 250 g ai/ha, read-out: damage to plant, Barnyardgrass (100=total damage to plant; 0=no damage to plant)
Experimental: as §1, with “8 days” for “one day”
as §2

corn (Zea mays) [8] = experiment: Test G Post-Emergence Protocol; details: Zea mays, post-emergence, 312 h; for plant injury at 15.625 g/ha: 15.625 g ai/ha, evaluated after 13 days (100=total damage to plant; 0=no damage to plant), read-out: Corn damage rating; for plant injury at 62.5 g/ha: 62.5 g ai/ha, read-out: Corn damage rating (100=total damage to plant; 0=no damage to plant); for plant injury at 62.5 g/ha / plant injury at 250 g/ha: evaluated after 13 days; for plant injury at 250 g/ha: 250 g ai/ha, read-out: damage to plant, Corn (100=total damage to plant; 0=no damage to plant)
Experimental: as §1, with “8 days” for “one day”
as §2

[9] = test system: giant foxtail (Setaria faberi); experiment: Test G Post-Emergence Protocol; details: Setaria faberi, post-emergence, 312 h; for pest or weed control at 15.625 g/ha: 15.625 g ai/ha, evaluated after 13 days (100=total damage to plant; 0=no damage to plant), read-out: Foxtail, Giant damage rating; for pest or weed control at 62.5 g/ha: 62.5 g ai/ha, read-out: Foxtail, Giant damage rating (100=total damage to plant; 0=no damage to plant); for pest or weed control at 62.5 g/ha / pest or weed control at 250 g/ha: evaluated after 13 days; for pest or weed control at 250 g/ha: 250 g ai/ha, read-out: damage to plant, Foxtail, Giant (100=total damage to plant; 0=no damage to plant)
Experimental: as §1, with “8 days” for “one day”
as §2

[10] = test system: ivy-leaved morning glory (Ipomoea hederacea); experiment: Test G Post-Emergence Protocol; details: Ipomoea, post-emergence, 312 h; for pest or weed control at 15.625 g/ha: 15.625 g ai/ha, evaluated after 13 days (100=total damage to plant; 0=no damage to plant), read-out: Morningglory, Ivy-leaved damage rating; for pest or weed control at 62.5 g/ha: 62.5 g ai/ha, read-out: Morningglory, Ivy-leaved damage rating (100=total damage to plant; 0=no damage to plant); for pest or weed control at 62.5 g/ha / pest or weed control at 250 g/ha: evaluated after 13 days; for pest or weed control at 250 g/ha: 250 g ai/ha, read-out: damage to plant, Morningglory, Ivy-leaved (100=total damage to plant; 0=no damage to plant)
Experimental: as §1, with “8 days” for “one day”
as §2

[11] = test system: redroot pigweed (Amaranthus retroflexus); experiment: Test G Post-Emergence Protocol; details: Amaranthus retroflexus, post-emergence, 312 h; for pest or weed control at 15.625 g/ha: 15.625 g ai/ha, evaluated after 13 days (100=total damage to plant; 0=no damage to plant), read-out: Pigweed, Redroot damage rating; for pest or weed control at 62.5 g/ha: 62.5 g ai/ha, read-out: Pigweed, Redroot damage rating (100=total damage to plant; 0=no damage to plant); for pest or weed control at 62.5 g/ha / pest or weed control at 250 g/ha: evaluated after 13 days; for pest or weed control at 250 g/ha: 250 g ai/ha, read-out: damage to plant, Pigweed, Redroot (100=total damage to plant; 0=no damage to plant)
Experimental: as §1, with “8 days” for “one day”
as §2

[12] = test system: velvetleaf (Abutilon theophrasti); experiment: Test G Post-Emergence Protocol; details: Abutilon theophrasti, post-emergence, 312 h; for pest or weed control at 15.625 g/ha: 15.625 g ai/ha, evaluated after 13 days (100=total damage to plant; 0=no damage to plant), read-out: Velvetleaf damage rating; for pest or weed control at 62.5 g/ha: 62.5 g ai/ha, read-out: Velvetleaf damage rating (100=total damage to plant; 0=no damage to plant); for pest or weed control at 62.5 g/ha / pest or weed control at 250 g/ha: evaluated after 13 days; for pest or weed control at 250 g/ha: 250 g ai/ha, read-out: damage to plant, Velvetleaf (100=total damage to plant; 0=no damage to plant)
Experimental: as §1, with “8 days” for “one day”
as §2

COc1cc([C@H]2CN(C)C(=O)[C@@H]2C(=O)Nc2ccccc2F)ccc1Cl (racemic) [Compound 1421]
pest or weed control at 15.625 g/ha [1]: 10%
pest or weed control at 62.5 g/ha [1]: 60%
pest or weed control at 250 g/ha [1]: 80%
plant injury at 15.625 g/ha (corn (Zea mays) [2]): 0%
plant injury at 62.5 g/ha (corn (Zea mays) [2]): 0%
plant injury at 250 g/ha (corn (Zea mays) [2]): 10%
pest or weed control at 15.625 g/ha [3]: 70%
pest or weed control at 62.5 g/ha [3]: 80%
pest or weed control at 250 g/ha [3]: 90%
pest or weed control at 15.625 g/ha [4]: 0%
pest or weed control at 62.5 g/ha [4]: 0%
pest or weed control at 250 g/ha [4]: 0%
pest or weed control at 15.625 g/ha [5]: 0%
pest or weed control at 62.5 g/ha [5]: 0%
pest or weed control at 250 g/ha [5]: 0%
pest or weed control at 15.625 g/ha [6]: 0%
pest or weed control at 62.5 g/ha [6]: 0%
pest or weed control at 250 g/ha [6]: 0%
pest or weed control at 15.625 g/ha [7]: 0%
pest or weed control at 62.5 g/ha [7]: 20%
pest or weed control at 250 g/ha [7]: 20%
plant injury at 15.625 g/ha (corn (Zea mays) [8]): 10%
plant injury at 62.5 g/ha (corn (Zea mays) [8]): 10%
plant injury at 250 g/ha (corn (Zea mays) [8]): 10%
pest or weed control at 15.625 g/ha [9]: 20%
pest or weed control at 62.5 g/ha [9]: 40%
pest or weed control at 250 g/ha [9]: 50%
pest or weed control at 15.625 g/ha [10]: 10%
pest or weed control at 62.5 g/ha [10]: 0%
pest or weed control at 250 g/ha [10]: 0%
pest or weed control at 15.625 g/ha [11]: 0%
pest or weed control at 62.5 g/ha [11]: 0%
pest or weed control at 250 g/ha [11]: 0%
pest or weed control at 15.625 g/ha [12]: 10%
pest or weed control at 62.5 g/ha [12]: 0%
pest or weed control at 250 g/ha [12]: 0%

Cc1c(NC(=O)[C@H]2C(=O)N(C)C[C@@H]2c2ccc(C(F)(F)F)cc2)cccc1[N+](=O)[O-] (racemic) [Compound 1423]
pest or weed control at 15.625 g/ha [1]: 10%
pest or weed control at 62.5 g/ha [1]: 10%
pest or weed control at 250 g/ha [1]: 30%
plant injury at 15.625 g/ha (corn (Zea mays) [2]): 10%
plant injury at 62.5 g/ha (corn (Zea mays) [2]): 20%
plant injury at 250 g/ha (corn (Zea mays) [2]): 10%
pest or weed control at 15.625 g/ha [3]: 10%
pest or weed control at 62.5 g/ha [3]: 60%
pest or weed control at 250 g/ha [3]: 70%
pest or weed control at 15.625 g/ha [4]: 0%
pest or weed control at 62.5 g/ha [4]: 0%
pest or weed control at 250 g/ha [4]: 0%
pest or weed control at 15.625 g/ha [5]: 0%
pest or weed control at 62.5 g/ha [5]: 0%
pest or weed control at 250 g/ha [5]: 0%
pest or weed control at 15.625 g/ha [6]: 0%
pest or weed control at 62.5 g/ha [6]: 0%
pest or weed control at 250 g/ha [6]: 0%
pest or weed control at 15.625 g/ha [7]: 0%
pest or weed control at 62.5 g/ha [7]: 10%
pest or weed control at 250 g/ha [7]: 10%
plant injury at 15.625 g/ha (corn (Zea mays) [8]): 10%
plant injury at 62.5 g/ha (corn (Zea mays) [8]): 0%
plant injury at 250 g/ha (corn (Zea mays) [8]): 10%
pest or weed control at 15.625 g/ha [9]: 0%
pest or weed control at 62.5 g/ha [9]: 20%
pest or weed control at 250 g/ha [9]: 60%
pest or weed control at 15.625 g/ha [10]: 0%
pest or weed control at 62.5 g/ha [10]: 0%
pest or weed control at 250 g/ha [10]: 0%
pest or weed control at 15.625 g/ha [11]: 0%
pest or weed control at 62.5 g/ha [11]: 0%
pest or weed control at 250 g/ha [11]: 50%
pest or weed control at 15.625 g/ha [12]: 0%
pest or weed control at 62.5 g/ha [12]: 0%
pest or weed control at 250 g/ha [12]: 0%
